Measured values as given in ChEMBL document CHEMBL1133150, “N-formyl hydroxylamine containing dipeptides: generation of a new class of vasopeptidase inhibitors” (Bioorg Med Chem Lett, 2000).
pIC50: −log10 of the molar value.

molecular target: T1, Neprilysin (Rattus norvegicus, UniProt P07861); assay: Inhibition of Neutral endopeptidase
T1 sequence (P07861 whole entry): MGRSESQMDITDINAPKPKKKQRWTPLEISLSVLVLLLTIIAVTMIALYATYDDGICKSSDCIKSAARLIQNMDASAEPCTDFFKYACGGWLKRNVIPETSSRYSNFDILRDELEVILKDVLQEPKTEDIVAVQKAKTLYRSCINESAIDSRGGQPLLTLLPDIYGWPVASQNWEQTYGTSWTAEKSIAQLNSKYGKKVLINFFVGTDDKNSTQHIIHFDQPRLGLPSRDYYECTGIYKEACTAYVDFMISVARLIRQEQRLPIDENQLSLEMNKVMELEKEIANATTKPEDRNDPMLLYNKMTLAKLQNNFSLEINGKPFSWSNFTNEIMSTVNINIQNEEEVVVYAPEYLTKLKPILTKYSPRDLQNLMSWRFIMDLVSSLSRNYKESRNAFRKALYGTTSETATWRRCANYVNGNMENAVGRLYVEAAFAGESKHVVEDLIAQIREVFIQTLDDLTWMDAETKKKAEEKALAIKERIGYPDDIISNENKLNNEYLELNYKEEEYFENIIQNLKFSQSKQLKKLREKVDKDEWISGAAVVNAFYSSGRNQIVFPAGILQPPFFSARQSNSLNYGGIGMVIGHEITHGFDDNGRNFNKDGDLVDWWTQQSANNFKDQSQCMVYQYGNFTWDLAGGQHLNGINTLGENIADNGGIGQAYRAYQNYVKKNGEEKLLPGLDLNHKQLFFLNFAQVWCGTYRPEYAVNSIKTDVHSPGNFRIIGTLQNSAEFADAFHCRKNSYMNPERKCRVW

Row | Structure (SMILES) | pIC50
1 | CC(C)C[C@H](NC(=O)[C@H](Cc1ccccc1)N(O)C=O)C(=O)N[C@@H](Cc1ccccc1)C(=O)O | 4.03
2 | CC(C)C[C@H](NC(=O)C(Cc1ccccc1)CN(O)C=O)C(=O)N[C@@H](Cc1ccccc1)C(=O)O (stereo not given in full) | 5.90
3 | CC(C)C[C@H](NC(=O)C(Cc1ccccc1)CN(O)C(N)=O)C(=O)N[C@@H](Cc1ccccc1)C(=O)O (stereo not given in full) | 3.15
4 | CC(=O)N(O)CC(Cc1ccccc1)C(=O)N[C@@H](CC(C)C)C(=O)N[C@@H](Cc1ccccc1)C(=O)O (stereo not given in full) | 3.67
5 | CS(=O)(=O)N[C@@H](CCCCN)C(=O)NC[C@H](CC1(C(=O)N[C@@H](Cc2ccc(O)cc2)C(=O)O)CCCC1)C(=O)O [SAMPATRILAT] | 7.70

Stronger by pIC50, values ahead:

Row | pIC50 | Structure (SMILES)
6 | 8.74 | O=CN(O)C[C@@H](Cc1ccccc1)C(=O)N[C@H]1Cc2ccccc2[C@H]2CCC[C@@H](C(=O)O)N2C1=O
7 | 7.74 | CC1(C)CCC[C@H](NC(=O)[C@H](Cc2ccccc2)CN(O)C=O)C(=O)N1CC(=O)O
8 | 8.52 | CC(C)[C@H](NCP(=O)(O)O)C(=O)N[C@@H](Cc1ccc(-c2ccccc2)cc1)C(=O)O
9 | 8.89 | O=CN(O)C[C@@H](Cc1ccccc1)C(=O)N[C@H]1CCc2ccccc2N(CC(=O)O)C1=O
10 | 8.05 | O=C(N[C@H]1CCS[C@H]2CCC[C@@H](C(=O)O)N2C1=O)[C@@H](S)Cc1ccccc1 [OMAPATRILAT]

molecular target: T2, Angiotensin-converting enzyme (Oryctolagus cuniculus, UniProt P12822); assay: Inhibition of Angiotensin I converting enzyme
T2 sequence (P12822 whole entry): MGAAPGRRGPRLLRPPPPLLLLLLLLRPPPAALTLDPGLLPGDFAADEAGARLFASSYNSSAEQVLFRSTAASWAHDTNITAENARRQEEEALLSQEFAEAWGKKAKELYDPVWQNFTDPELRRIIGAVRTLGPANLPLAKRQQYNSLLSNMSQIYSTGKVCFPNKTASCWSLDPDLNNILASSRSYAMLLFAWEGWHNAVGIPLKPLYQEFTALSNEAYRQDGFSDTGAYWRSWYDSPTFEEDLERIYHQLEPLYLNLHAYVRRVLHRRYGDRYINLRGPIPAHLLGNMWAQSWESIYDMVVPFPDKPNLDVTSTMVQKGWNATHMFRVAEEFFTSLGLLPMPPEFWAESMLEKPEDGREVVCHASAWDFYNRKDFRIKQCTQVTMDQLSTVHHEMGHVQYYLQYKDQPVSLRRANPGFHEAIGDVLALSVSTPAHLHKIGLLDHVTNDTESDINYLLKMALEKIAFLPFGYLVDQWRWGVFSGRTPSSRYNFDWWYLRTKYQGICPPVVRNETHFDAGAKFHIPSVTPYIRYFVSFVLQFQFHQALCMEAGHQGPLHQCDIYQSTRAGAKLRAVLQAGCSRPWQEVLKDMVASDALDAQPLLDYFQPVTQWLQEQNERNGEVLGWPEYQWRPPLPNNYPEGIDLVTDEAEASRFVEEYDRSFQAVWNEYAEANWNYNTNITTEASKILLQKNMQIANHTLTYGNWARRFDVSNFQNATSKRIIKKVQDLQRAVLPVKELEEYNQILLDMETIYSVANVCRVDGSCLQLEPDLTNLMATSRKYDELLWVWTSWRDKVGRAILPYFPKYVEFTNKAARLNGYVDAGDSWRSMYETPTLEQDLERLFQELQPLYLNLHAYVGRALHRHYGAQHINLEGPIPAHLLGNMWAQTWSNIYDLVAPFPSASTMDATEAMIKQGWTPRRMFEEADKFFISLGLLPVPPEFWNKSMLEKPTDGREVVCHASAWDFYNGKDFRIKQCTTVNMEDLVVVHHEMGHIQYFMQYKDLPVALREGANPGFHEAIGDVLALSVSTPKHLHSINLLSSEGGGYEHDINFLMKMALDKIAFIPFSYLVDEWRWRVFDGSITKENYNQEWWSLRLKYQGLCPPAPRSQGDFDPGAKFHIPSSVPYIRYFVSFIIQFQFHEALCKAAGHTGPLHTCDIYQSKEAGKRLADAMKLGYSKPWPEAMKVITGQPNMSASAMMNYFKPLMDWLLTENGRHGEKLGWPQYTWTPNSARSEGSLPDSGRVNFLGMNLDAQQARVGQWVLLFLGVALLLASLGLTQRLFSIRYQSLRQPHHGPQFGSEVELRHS

Row | Structure (SMILES) | pIC50
11 | CC(C)C[C@H](NC(=O)[C@H](Cc1ccccc1)N(O)C=O)C(=O)N[C@@H](Cc1ccccc1)C(=O)O | 3.64
12 | CC(C)C[C@H](NC(=O)C(Cc1ccccc1)CN(O)C=O)C(=O)N[C@@H](Cc1ccccc1)C(=O)O (stereo not given in full) | 6.97
13 | CC(C)C[C@H](NC(=O)C(Cc1ccccc1)CN(O)C(N)=O)C(=O)N[C@@H](Cc1ccccc1)C(=O)O (stereo not given in full) | 3.28
14 | CC(=O)N(O)CC(Cc1ccccc1)C(=O)N[C@@H](CC(C)C)C(=O)N[C@@H](Cc1ccccc1)C(=O)O (stereo not given in full) | 3.34
15 | CS(=O)(=O)N[C@@H](CCCCN)C(=O)NC[C@H](CC1(C(=O)N[C@@H](Cc2ccc(O)cc2)C(=O)O)CCCC1)C(=O)O [SAMPATRILAT] | 8.15

Results, then the molecule that gave them:

Row | pIC50 | Structure (SMILES)
16 | 8.47 | O=CN(O)C[C@@H](Cc1ccccc1)C(=O)N[C@H]1Cc2ccccc2[C@H]2CCC[C@@H](C(=O)O)N2C1=O
17 | 8.27 | CC1(C)CCC[C@H](NC(=O)[C@H](Cc2ccccc2)CN(O)C=O)C(=O)N1CC(=O)O
18 | 7.60 | CC(C)[C@H](NCP(=O)(O)O)C(=O)N[C@@H](Cc1ccc(-c2ccccc2)cc1)C(=O)O
19 | 8.28 | O=CN(O)C[C@@H](Cc1ccccc1)C(=O)N[C@H]1CCc2ccccc2N(CC(=O)O)C1=O
20 | 8.22 | O=C(N[C@H]1CCS[C@H]2CCC[C@@H](C(=O)O)N2C1=O)[C@@H](S)Cc1ccccc1 [OMAPATRILAT]
